A short description of data set [1]: Clodronate loading on hydroxyapatite particles. Conditions: for binding (loading) efficiency of clodronate to HA: 20 mg clodronate per 1 mg particles, disodium salt. The data set is classed as physicochemical. On the procedure: Clodronate (dichloromethylenediphosphonic acid disodium salt; Sigma, St. Louis, Mo.) was dissolved in distilled water (200 mg/mL) and 20 mg was added to 1 mg of hydroxyapatite particles. The mixture was incubated for 30 minutes. After hydroxyapatite particle binding, free clodronate in the supernatant was complexed with copper (II) ions (Cu^2) in nitric acid solution and the concentration was assayed by ultraviolet spectrophotometry as described elsewhere (Ostovic et al., Pharm Res., 10:470-472 (1993)). The amount of clodronate bound to hydroxyapatite particles was calculated by subtracting free clodronate from input clodronate.
The feasibility of utilizing the HA-biphosphonate interaction for drug loading onto the particles also was tested. Twenty milligrams of clodronate, a biphosphonate, was mixed with 1 mg of hydroxyapatite particles (40 nm in size) in 10 mM Tris-Cl buffer (pH 7.2), and the mixture was incubated with continuous shaking at room temperature for 30 minutes. Clodronate could be loaded onto hydroxyapatite particles at 10% efficiency (2 mg clodronate/mg HAP; n=3). […] The clodronate that was loaded on hydroxyapatite particles remained biologically active.

Data set [2] is described as follows: In vivo biodistribution of Sm-HAP by gamma camera / microSPECT-CT imaging. Conditions: mice, intravenous, 200 μCi for Sm-HAP. On the procedure: FIG. 1 contains photographs of the distribution of Sm-HAP uptake in mice. […] The mouse was injected intravenously with Sm-153 HA nanoparticles synthesized at 50° C. Imaging was performed 2 hours post injection.
FIG. 2 contains a photograph of the distribution of Sm-153 EDTMP determined via non-invasive imaging using a small animal gamma camera (X-SPECT).
To determine the in vivo biodistribution of Sm-HAP, 200 μCi of Sm-HAP were administered intravenously to mice in 150 to 200 μL. The mice were imaged non-invasively using a microSPECT/CT machine.

A further data set relates to Hep3B/Fluc. As to the kind of experiment: Mouse liver cancer model, bioluminescent tumor imaging. As to conditions: intrahepatic Hep3B/Fluc, treatment day seven, intravenous. The data set is classed as in vivo, Nude mice. On the procedure:
Experiments were performed to evaluate Sm-153-hydroxyapatite particles (Sm-HAP) alone or in combination with PS-341, a radiosensitizer drug, in a mouse liver cancer model. Nude mice were injected intrahepatically with Hep3B/Fluc, a human hepatocellular carcinoma cell line expressing Firefly luciferase. Tumor growth was determined using a Xenogen Bioluminescent IVIS 200 Imaging System. On day seven after tumor implantation, mice were injected intravenously via the tail vein with 200 μg HAP, 0.5 mCi free Sm-153-EDTMP, 0.5 mCi Sm-HAP alone, or 0.5 mCi Sm-HAP in combination with two intraperitoneal doses of 0.5 mg/kg PS-341, the first administered one day prior to Sm-HAP administration and the second administered one day after Sm-HAP administration. […] In contrast, tumors in mice treated with the combination therapy (Sm-HAP and two doses of PS-341) regressed, as evidenced by a decrease in the signal (FIG. 7).

Data set [3] is described as follows: Labeling of preformed hydroxyapatite particles by incubation with Sm-153-EDTMP. Conditions: 1 mg particles with 200 μCi for up to 2 hours at room temperature. Type of data set: physicochemical. On the procedure:
The unlabeled, hydroxyapatite particles were incubated with Sm-153-EDTMP. Briefly, 1 mg of hydroxyapatite particles was incubated with 200 μCi of Sm-153-EDTMP for up to 2 hours at room temperature (25° C.). The resulting hydroxyapatite particles were spun down and resuspended in 10 mM Tris buffer pH 7.2. The amount of Sm-153 radioactivity in the hydroxyapatite particles was determined and found to be negligible.

Take `O=P([O-])([O-])C(Cl)(Cl)P(=O)(O)O.[Na+].[Na+]` [clodronate, dichloromethylenediphosphonic acid disodium salt]: in data set [1] (40 nm HA), the “final concentration of clodronate on HA” value is listed as 2 mg clodronate/mg HA and the “binding (loading) efficiency of clodronate to HA” value is reported as 10%. Also, the “binding (loading) efficiency of clodronate to HA” value in data set [1] (40 nm HA, listed as clondronate) is reported as “about 10%”. Moreover, the “clodronate loaded per mg particles” value in data set [1] (40 nm, 10 mM Tris-Cl pH 7.2, 30 minutes, n=3) is recorded as 2 mg clodronate/mg HAP.

Regarding `O=P([O-])(O)CN(CCN(CP(=O)([O-])O)CP(=O)(O)O)CP(=O)([O-])O.[153Sm+3]` [Sm-153-EDTMP], in data set [2], the “in vivo biodistribution (uptake sites by imaging)” value was “binds to the skeleton of the mouse”. The “tumor course by bioluminescent signal” value in the data set with Hep3B/Fluc is “progressed”. Moreover, the “amount of Sm-153 radioactivity in the hydroxyapatite particles” value in data set [3] was “negligible”.

These data come from patent US20100098632A1, “HYDROXYAPATITE PARTICLES” (priority 2006, published 2010).
